Results reported in patent publication US20200179286A1, “CARRIER STRUCTURE AND DRUG CARRIER, AND PREPARING METHODS THEREOF” (GENE'E TECH CO., LTD., priority 2018, published 2020).
≈ marks a conversion by molar mass, not a printed value.

Tested on: H. pylori
Experiment: in vitro inhibition of H. pylori suspension (OD450 after 48 hours)
Type: cell-based
Conditions: Helicobacter pylori, read-out: minimum inhibitory concentration
Protocol: FIGS. 7 and 8 show the results of the in vitro application of the drug carrier according to some embodiments of this invention. In the in vitro experiment, a suspension of H. pylori was obtained and respectively added with amoxicillin (with a minimum inhibitory concentration of about 0.5 μg/ml and the concentration was fixed at 0.5 μg/ml), samples 1, 5, A and E above. Next, the suspensions of H. pylori, after the addition of amoxicillin and the above samples, were further cultured for 48 hours, the OD450 of the suspension each was measured to determine the effect of inhibiting H. pylori. […] Through this test, it can be clearly seen that both the carrier structure and the drug carrier of the disclosure have the ability to inhibit H. pylori, especially the drug carrier with appropriate active substances has an obvious effect.

MIC: ~0.5 µg/mL (≈ 1.37 µM)
Structure (SMILES): CC1(C)S[C@@H]2[C@H](NC(=O)[C@H](N)c3ccc(O)cc3)C(=O)N2[C@H]1C(=O)O [amoxicillin]
